The conditions of this data set: a range is the spread between reports.

Usually melting point stands for the temperature, or range, at which the solid turns liquid.

`ClC(Br)Br` had a melting point of -22 to -20 °C. Next, `O=C(c1ccccc1)c1ccc(C(F)(F)F)cc1`: 115 to 118 °C.

Take `COS(=O)(=O)OC`: the melting point is -32 to -27 °C. Next, `CCCCCCC(C)=O`: -21 to -16 °C. `Brc1cc(Br)c(Br)cc1Br` had a melting point of 178 to 182 °C. The compound `Cc1cc([N+](=O)[O-])ccc1Cl` yielded a melting point of 42.5 to 43 °C. The figure for `Nc1ccc(/C=C/c2ccc([N+](=O)[O-])cc2)c([N+](=O)[O-])c1` is 198 to 202 °C; for `ClCC1CC1` it is -91 to -90.9 °C; for `CCCCC(=O)O` it is -34 to -33.7 °C.

As to `O=C(O)COc1ccc(F)cc1`, the melting point fell in the range of 104 to 105 °C. The figure for `CC1=C(C)CCCC1` is -84.1 to -84 °C.

Consider `c1ccc(Oc2ccccc2)cc1`, for which the melting point was 26.8 to 28 °C.

As for `NC(=O)c1c(F)cccc1F`, the melting point was 146 to 147 °C. Next, `C=CC#N`: -84 to -83.5 °C; `CCOc1ccc(C=O)cc1OC`: 61 to 64.5 °C. Next, `O=C(O)Cc1cccc(F)c1`: 43 to 46 °C; `Brc1ccccc1-c1ccccc1`: 1 to 2 °C; `Nc1nccs1`: 90 to 93 °C. The figure for `O=C(c1ccco1)C(O)c1ccco1` (configuration not stated) is 136 to 138 °C; for `CCCCCCCCCCCCCCO` it is 39 to 40 °C; for `COc1ccc(C(=O)OC(=O)c2ccc(OC)cc2)cc1` it is 94.5 to 97 °C. Turning to `Cc1cc(C)c(C)c(Br)c1C`, the melting point is 56 to 60 °C. Next, `C=C(C)CC(C)(C)C`: -94 to -93 °C; `CCCCCCC=CCCCCCCCC(=O)O`: -0.1 to 0.5 °C.

`CCC(C)(C)C` registered a melting point of -100 to -99 °C. The figure for `C=CCOc1nc(OCC=C)nc(OCC=C)n1` is 26 to 27 °C; for `CCCCCCCCCCCCCCCCCCC(=O)O` it is 69 to 69.4 °C; for `Cc1ccccc1CBr` it is 19 to 21 °C. As for `OCCOc1ccccc1`, the melting point fell in the range of 12 to 14 °C. The figure for `C=CCn1c(=O)n(CC=C)c(=O)n(CC=C)c1=O` is 20.5 to 24 °C. The figure for `CC[N+](=O)[O-]` is -89.5 to -89 °C; for `COc1cc(Cc2cnc(N)nc2N)cc(OC)c1OC` it is 200 to 201 °C; for `COc1ccc(C=CC(=O)c2ccccc2)cc1` it is 75 to 79 °C.

Compound `CCc1nc(C)c[nH]1` returned a melting point of 47 to 50.5 °C. Turning to `O=C1CCCCC1c1ccccc1` (configuration not stated), the melting point fell in the range of 57 to 58 °C. Next, `OCc1c[nH]c2ccccc12`: 97.5 to 98 °C; `O=C(O)CCC(=O)O`: 185 to 188 °C.

`CCOc1ccccc1O` returned a melting point of 26 to 29 °C.

In turn, `Oc1cc(Cl)cc(Cl)c1` yielded a melting point of 66 to 68 °C. The figure for `CCCCCC(=O)OCCC` is -69 to -68.7 °C; for `C=C(Br)CC` it is -133 °C; for `c1ccc2c(c1)Oc1ccccc1O2` it is 122 °C. Next, `Cc1ccc(CCl)cc1`: 4 to 5 °C; `NC(=O)c1ccc(N)nc1`: 246 to 247 °C; `CN(C)c1ccc(C=Nc2ccccc2)cc1`: 96 to 100 °C.

In the case of `Nc1ccccc1-c1ccccc1`, the melting point lay within 49 to 51.5 °C. The figure for `Nc1ccc(Br)cc1Br` is 78 to 80 °C. The figure for `O=[N+]([O-])c1cccc(Br)c1` is 54 to 56 °C. `COC(=O)c1ccc(C)cc1`: the melting point was in the range of 33.2 to 37 °C. The compound `O=C(O)c1ccccc1Cl` yielded a melting point of 139 to 142 °C. The figure for `COCOC` is -105 °C; for `CC(C)(C)C1CCC(=O)CC1` it is 48.5 to 49 °C; for `Oc1ccc(Cl)cc1` it is 41 to 44 °C. The figure for `ICCI` is 80 to 83 °C; for `CC1CCCC1` it is -143 to -142 °C. Turning to `O=[N+]([O-])c1ccccc1CCl`, the melting point lay within 47 to 51 °C. Next, `COC(=O)c1cc(Cl)ccc1[N+](=O)[O-]`: 48.5 to 49 °C. In the case of `CCOC(=O)CCCCCCCCC(=O)OCC`, the melting point lay in the range of 2 to 5 °C. The figure for `CN(C)CC(=O)O` is 181 to 186 °C; for `CC(C)c1ccc2ccccc2c1` it is 14 to 14.5 °C; for `C1=CC2CCC1C2` it is 45 to 46 °C. The figure for `Cc1cccc(C(=O)O)c1` is 109 to 112 °C. Next, `C[Si](C)(C)C#C[Si](C)(C)C`: 22 to 26 °C; `NC(CC(=O)O)C(=O)O` (configuration not stated): 270 to 275 °C; `O=C(O)c1cc2ccccc2cc1O`: 220 to 222 °C. In turn, `O=C1c2ccccc2C(=O)N1CCCBr` yielded a melting point of 74 to 75 °C. Next, `O=C(c1ccccc1)c1ccc(O)cc1O`: 144 to 146 °C; `Cc1ccccc1-c1ccccc1`: -0.2 to 0 °C.

Turning to `COC(=O)c1ccc([N+](=O)[O-])cc1`, the melting point lay in the range of 95 to 96 °C. The figure for `CC(=O)Nc1ccccc1Cl` is 87 to 89 °C; for `CCC1CCCC1C` (configuration not stated) it is -106 °C.

`CCC(C)=NO` showed a melting point of -30 to -29.5 °C.

Turning to `CCOC(=O)C(NC(C)=O)C(=O)OCC`, the melting point is 96.3 to 98 °C.

`CCCCCCC` returned a melting point of -91 to -90.6 °C. `NC(=O)c1ccc(N)cc1` gave a melting point of 182 to 183 °C. Next, `Cc1ccc(C(C)C)c(O)c1`: 49 to 51.5 °C; `COc1cc(CC(=O)O)ccc1O`: 143 to 144 °C. The figure for `COc1ccc(C=O)c2ccccc12` is 34 to 34.8 °C; for `CCCCCCc1ccc(O)cc1O` it is 65 to 68 °C. `CCCCCCCCCCCCCCCCCC(=O)OC[C@@H](O)[C@H]1OC[C@H](O)[C@H]1O` displayed a melting point of 55 to 57 °C. Next, `CC(C)CCCl`: -104 °C; `Oc1cc2ccccc2cc1O`: 162 to 164 °C; `OC(c1ccccc1)c1ccccc1`: 66 to 69 °C. Next, `CCN(C(C)C)C(C)C`: -50 to -46 °C; `Cc1cccc(N)n1`: 41 to 43 °C; `Nc1ccc(O)c([N+](=O)[O-])c1`: 126 to 129 °C. `CCC(C)(O)C#CC(C)(O)CC` (configuration not stated) gave a melting point of 53 to 54 °C. Next, `CC1(C)C2CC[C@@]1(C)C(=O)C2`: 178 to 180 °C; `CCCCCCCCCCCCCCCCCCCC`: 36 to 37 °C. The figure for `CCNc1nc(NC(C)(C)C)nc(SC)n1` is 104 to 105 °C; for `Oc1cccc(Cl)c1` it is 32 to 34 °C. The figure for `COC(=O)c1ccccc1O` is -9 to -7 °C. Compound `N#Cc1ccc([N+](=O)[O-])cc1` returned a melting point of 145 to 149 °C. Next, `CCCCCCCCCCc1ccccc1`: -14.4 to -14 °C; `CCCCCCCCCc1ccc(O)cc1`: 42 to 45 °C; `O=C(c1ccccc1)c1ccc(Br)cc1`: 81 to 82.5 °C.

As for `Oc1cccc(F)c1`, the melting point was in the range of 10 to 13.7 °C. The figure for `NCCCCCO` is 35 to 38.5 °C; for `Cc1ccc2cccc(O)c2n1` it is 72 to 73.8 °C. Consider `CC1(O)CCC(C(C)(C)O)CC1` (configuration not stated), for which the melting point amounted to 158 °C. Next, `CCCCCC1CCCCC1`: -58 to -57.5 °C; `OCc1ccc(Cl)c(Cl)c1`: 36 to 38 °C. `O=C(c1ccccc1)c1c(F)c(F)c(F)c(F)c1F` displayed a melting point of 37 to 38 °C. `CCCOC=O` returned a melting point of -93 to -92.9 °C. In turn, `O=C1OC(=O)c2c(Cl)c(Cl)c(Cl)c(Cl)c21` showed a melting point of 254 to 256 °C. The figure for `Brc1cccc(I)c1` is -9.3 to -9 °C; for `c1ccc2nc3ccccc3cc2c1` it is 108 to 109 °C; for `O=C(O)CCCCCBr` it is 34 to 35 °C. Next, `N#Cc1ccc(F)cc1`: 34.8 to 36 °C; `O=[N+]([O-])c1ccc(C(F)(F)F)cc1`: 39 to 40 °C; `C=CCCCCCCC`: -83.2 to -81 °C. Next, `C=CC(CC)CC`: -128 to -127 °C; `Cc1ccc([N+](=O)[O-])c(O)c1`: 53 to 55 °C. `O=S(=O)(Cl)c1ccc(I)cc1`: the melting point lay in the range of 82 to 85 °C. The figure for `O=C(CCNNC(=O)c1ccncc1)NCc1ccccc1` is 151 to 152 °C; for `C1=CCCCCCC1` it is -16 to -12 °C; for `O=CO` it is 8 to 8.32 °C. In turn, `CON(C)C(=O)Nc1ccc(Cl)c(Cl)c1` returned a melting point of 93 to 93.5 °C. The compound `O=C(Oc1ccccc1)c1ccccc1` displayed a melting point of 67 to 71 °C. Next, `CC(=O)OC1CCC2(C)C(CC(=O)C3C4CCC(=O)C4(C)CCC32)C1` (configuration not stated): 164 to 165 °C; `O=C(c1ccccc1)c1cccc(C(F)(F)F)c1`: 52 to 52.5 °C. The figure for `C=CCCCCC` is -120 to -119 °C.

`Oc1cccc(Cl)c1Cl` had a melting point of 56 to 59 °C. The figure for `FC(F)(F)c1ccc(Cl)nc1` is 31 to 33 °C; for `CC(=O)Nc1cccc(Cl)c1` it is 77 to 80 °C; for `COC(=O)c1ccc(C(=O)OC)cc1` it is 141 to 142 °C. `Brc1cc(Br)cc(Br)c1` yielded a melting point of 122 to 124 °C. In turn, `OC(COc1ccccc1)COc1ccccc1` displayed a melting point of 81.5 to 82 °C. As to `CC(=O)c1ccc2ccccc2c1O`, the melting point was 99 to 101 °C. The compound `Fc1ccccc1-c1ccccc1` came in with a melting point of 73.5 to 74 °C.

Regarding `NC(=O)c1cccc2ccccc12`, the melting point was in the range of 206 to 208 °C.

In turn, `Cc1cccc(C(N)=O)c1` returned a melting point of 95 to 96 °C.

Regarding `CC(Oc1ccccc1Cl)C(=O)O` (configuration not stated), the melting point fell in the range of 113 to 114 °C. `O=C1C(Br)=CC(=NCl)C=C1Br` registered a melting point of 80 to 83 °C. Compound `O=[N+]([O-])c1c(Cl)c(Cl)c(Cl)c(Cl)c1Cl` had a melting point of 142 to 144 °C. As to `C[Si]1(C)O[Si](C)(C)O[Si](C)(C)O[Si](C)(C)O1`, the melting point was 17.5 to 18 °C. The figure for `c1cc2ccc3ccc4ccc5ccc6ccc1c1c2c3c4c5c61` is 437 to 440 °C.

(Values after a melting point compilation (Tetko et al.).)
